# Results taken from US20140011749A1, “KETOGENIC DIET COMPOSITION FOR THE TREATMENT OF CHEMO THERAPY AND/OR RADIATION THERAPY PATIENTS” (priority 2011, published 2014).
# System: GL261-luc cells
# Experiment: GL261-luc intracranial malignant glioma mouse model: survival and bioluminescence
# Type: in vivo, albino C57BL/6 mice
# Conditions: TMZ (5×50 mg/kg), animals maintained on SD
# Method: GL261-luc cells expressing luciferase were stereotactically implanted into the right frontal lobe of immune-competent albino C57BL/6 mice (NCI, Frederick, Md.). Following intracranial implantation, animals were fed standard rodent chow (SD) and were randomized to treatment groups on day 3 (SD vs KetoCal® with and without radiation or TMZ) based on bioluminescent signal (IVIS® Spectrum in vivo imaging system, Caliper Life Sciences, Hopkinton, Mass.). […] Mice were maintained on a 12 hour light/dark cycle and KetoCal® or SD was available ad libitum.
smiles,measurement,value
"Cn1nnc2c(C(N)=O)ncn2c1=O [TMZ, temozolomide]",median survival,28 days
